Assays:
[1] = biological target: MCL-1 protein (Homo sapiens, UniProt Q07820); experiment: Dose-dependent MCL-1 protein degradation and induction of apoptosis in cancer cells, Western blot; type: cell-based; parameters: endogenous in cells; host or cells: OPM-2, MV-4-11, DMS 114; conditions: for degradation of MCL-1 protein and apoptosis of OPM2 cells compared to dMCL1-2 and C3: FIG. 2 and FIG. 3
Description: The experiments were performed as described for the “OPM-2 cells: MCL-1 protein degradation, Western blot” and “DMS 114 cells: MCL-1 protein degradation, Western blot”.
In addition to MCL-1 and α-Tubulin, PARP and cleaved caspase-3 were detected to monitor apoptosis.
FIG. 2 presents the results of MCL-1 protein degradation and induction of apoptosis for the OPM-2 cells treated with 204 or 215 at 0.01, 0.1 or 1 μM concentration for 6 hours or 24 hours, as indicated.
FIG. 3A presents the results of MCL-1 protein degradation and induction of apoptosis for the OPM-2 cells treated with 204 and control compounds dMCL1-2 (Papatzimas et al., J. Med. Chem. 2019, 62, 11, 5522-5540) at 0.01, 0.03, 0.1, 0.3 or 1 μM concentration for 3 hours, 6 hours or 24 hours, as indicated.
FIG. 3B presents the results of MCL-1 protein degradation and induction of apoptosis for the MV-4-11 cells treated with 204 and control compounds C3 (Wang Z et al., J. Med. Chem. 2019, 62, 17, 8152-8163) at 0.1, 1 or 10 μM concentration for 24 hours, as indicated.
FIG. 3C presents the results of MCL-1 protein degradation and induction of apoptosis for the OPM-2 cells treated with 220, 268, 346 and control compounds dMCL1-2 at 0.03, 0.1, 0.3, 1 μM concentration for 6 hours, as indicated.
FIG. 3D presents the results of MCL-1 protein degradation and induction of apoptosis for the OPM-2 cells treated with 220, 342 at 0.1, 1, 10 μM concentration for 6 hours, as indicated.
FIG. 3E presents the results of MCL-1 protein degradation and induction of apoptosis for the DMS 114 cells treated with 204, 220, 268, 346 at 0.1, 1, 10 μM concentration for 6 hours, as indicated.

[2] = biological target: [MCL-1]-[compound of formula (I)]-[CRBN/DDB1] complex (Homo sapiens, UniProt Q07820+Q96SW2); experiment: AlphaLISA dose response ternary complex formation assay; type: binding; conditions: read-out: AlphaLISA dose response Average pEC50 by molecule (converted)
Chain of [MCL-1]-[compound of formula (I)]-[CRBN/DDB1] complex (Q07820 whole entry): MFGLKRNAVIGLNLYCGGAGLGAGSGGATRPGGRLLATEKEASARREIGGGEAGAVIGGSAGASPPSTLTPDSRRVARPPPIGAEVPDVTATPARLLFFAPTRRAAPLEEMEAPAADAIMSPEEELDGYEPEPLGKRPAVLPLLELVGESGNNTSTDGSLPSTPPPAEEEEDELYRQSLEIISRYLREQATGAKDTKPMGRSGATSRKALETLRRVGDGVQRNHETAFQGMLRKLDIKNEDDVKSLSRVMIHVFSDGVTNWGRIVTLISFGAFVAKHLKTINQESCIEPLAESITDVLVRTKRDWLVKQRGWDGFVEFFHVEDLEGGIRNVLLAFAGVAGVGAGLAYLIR
Chain of [MCL-1]-[compound of formula (I)]-[CRBN/DDB1] complex (Q96SW2 whole entry): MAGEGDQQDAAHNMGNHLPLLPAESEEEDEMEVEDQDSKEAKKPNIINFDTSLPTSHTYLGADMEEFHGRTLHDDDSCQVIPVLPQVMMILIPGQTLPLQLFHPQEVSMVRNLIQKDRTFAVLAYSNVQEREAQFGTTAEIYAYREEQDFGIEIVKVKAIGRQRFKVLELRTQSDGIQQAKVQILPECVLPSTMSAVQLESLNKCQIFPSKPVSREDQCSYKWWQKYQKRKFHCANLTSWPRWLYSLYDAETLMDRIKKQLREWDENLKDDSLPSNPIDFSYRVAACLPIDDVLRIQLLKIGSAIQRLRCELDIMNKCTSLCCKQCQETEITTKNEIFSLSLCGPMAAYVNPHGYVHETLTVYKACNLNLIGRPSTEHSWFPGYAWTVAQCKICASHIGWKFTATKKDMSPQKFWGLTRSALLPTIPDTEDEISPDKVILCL
Chain of [MCL-1]-[compound of formula (I)]-[CRBN/DDB1] complex (Q16531 whole entry partner): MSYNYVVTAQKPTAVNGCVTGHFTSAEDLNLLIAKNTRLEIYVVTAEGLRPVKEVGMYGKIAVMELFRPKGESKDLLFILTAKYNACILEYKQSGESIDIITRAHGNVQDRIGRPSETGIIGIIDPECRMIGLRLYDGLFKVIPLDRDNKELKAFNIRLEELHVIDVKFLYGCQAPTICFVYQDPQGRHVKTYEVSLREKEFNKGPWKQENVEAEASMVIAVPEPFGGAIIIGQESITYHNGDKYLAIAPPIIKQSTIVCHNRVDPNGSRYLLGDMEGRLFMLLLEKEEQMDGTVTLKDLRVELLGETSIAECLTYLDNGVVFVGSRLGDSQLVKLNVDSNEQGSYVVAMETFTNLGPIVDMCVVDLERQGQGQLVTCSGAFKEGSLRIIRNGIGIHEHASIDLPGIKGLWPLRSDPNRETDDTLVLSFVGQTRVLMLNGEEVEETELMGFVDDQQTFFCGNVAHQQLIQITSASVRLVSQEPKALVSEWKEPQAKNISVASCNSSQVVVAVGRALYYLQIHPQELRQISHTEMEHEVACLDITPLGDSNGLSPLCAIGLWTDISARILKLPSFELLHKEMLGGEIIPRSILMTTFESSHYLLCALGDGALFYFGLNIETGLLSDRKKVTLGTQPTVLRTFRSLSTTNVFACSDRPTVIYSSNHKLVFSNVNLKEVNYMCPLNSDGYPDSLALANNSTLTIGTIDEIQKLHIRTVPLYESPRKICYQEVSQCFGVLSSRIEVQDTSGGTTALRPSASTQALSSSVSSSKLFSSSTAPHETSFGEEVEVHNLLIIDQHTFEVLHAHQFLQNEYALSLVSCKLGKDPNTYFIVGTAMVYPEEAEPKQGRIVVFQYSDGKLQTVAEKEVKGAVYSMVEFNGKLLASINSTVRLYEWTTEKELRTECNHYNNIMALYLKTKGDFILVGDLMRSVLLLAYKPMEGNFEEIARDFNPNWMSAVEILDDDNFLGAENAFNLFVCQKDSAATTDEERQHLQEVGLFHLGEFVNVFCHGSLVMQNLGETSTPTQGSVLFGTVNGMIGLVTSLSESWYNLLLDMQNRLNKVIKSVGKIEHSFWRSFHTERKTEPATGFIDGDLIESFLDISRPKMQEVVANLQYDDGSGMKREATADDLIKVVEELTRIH
In short: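 EC50 comes from dose–response of AlphaLISA luminescence (excitation 680, emission 615 nm), normalised between DMSO background and an internal positive control, with concentrations past the hook point dropped. Ternary complex formed by mixing bead-bound biotin-hMCL-1 and His-CRBN/DDB1 (protein solutions 40 and 200 nM) with compound in 2% DMSO, 30 min, 25 °C.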

[3] = system: hiPSC-CM (iCELL Cardiomyocytes); experiment: Cardiac safety: hiPSC-CM cell viability assay (CTG); type: cell-based, human; conditions: for IC50: Homo sapiens, Cardiomyocyte, 336 h, viability, CTG assay, treatment until day 14, read-out: Average pIC50 by molecule hiPSC-CM (converted); for activity in viability assay in cardiomyocytes: as opposed to reference compounds MIK665 and AZD5991
From the text: The effect of various compounds of the invention and a reference compounds AZD5991 and MIK665 on cardiac safety was investigated by the evaluation of viability with CTG assay (Promega; cat #G7572) in iCELL™ Cardiomyocytes from FUJIFILM Cellular Dynamics (Catalog number: 11713).
Cells were thawed, counted using an automated cell counter (TC20, Bio-Rad) and seeded in 96 well plates (Greiner-BioOne; 655098) previously coated with 0.1% gelatin (Sigma-Aldrich; G1890) using Plating Medium (#M1001) following the instructions of the iCELL cardiomyocytes User Guide. Forty ml of Plating Medium was used to equally distribute the cells in four 96 well plates. Cells were then placed in the incubator at 37° C., 5% CO2 and left undisturbed for 48 hours. Compounds were serially diluted in DMSO and then further diluted to final assay concentration using maintenance medium (#M1003). Final DMSO concentration was 0.5%. Forty eight hours after plating, non-adherent cells and debris were washed as described in the User Guide. Plating medium was then replaced with maintenance medium containing diluted compounds or DMSO (as control). Medium was then changed every 2 days with fresh medium containing compounds or DMSO until the end of the treatment. On day 14, only medium without compounds was used immediately before the CTG assay. Luminescence signal was measured using a CLARIOstar Plus Multi-Mode Microplate Reader (574-590 nm).

[4] = system: MV-4-11 cells; experiment: Mitochondrial potential changes in cancer cells, flow cytometry (TMRE); type: cell-based; conditions: 5 hours
Description: The effect of compounds 220 and 268 of the invention in MV-4-11 cells was investigated using the following protocol.
MV-4-11 cells were seeded on 384-well plates (0.05 ml) in growth medium containing 1% FBS and 50 nM tetramethylrhodamine ethyl ester (TMRE). Immediately after seeding, compounds in appropriate concentrations were added directly to the cell culture medium. After 5 hours incubation, cells were analyzed by flow cytometry (LSR Fortessa X-20; BD Biosciences). Results were evaluated using FlowJo (V10) software.
FIG. 7 presents the effect of the compound in the mitochondrial potential of MV-4-11 cells treated with 220 for 5 hours. Compound concentration is specified in the top-left corner of each histogram; Dimethyl sulfoxide (DMSO) was used as vehicle control. Population of interest and the percentage of cells included are highlighted with a red bar and shown in bold red ink, respectively.
FIG. 8 presents the concentration dependent decrease (compared to DMSO control) of the population of cells with normal polarized mitochondria after treatment of MV-4-11 cells with the compounds 220 and 268 for 5 hours.

Chain of MCL-1 protein (Q07820 whole entry): as the sequence (Q07820 whole entry) above

Structure (SMILES) | degradation of MCL-1 protein and apoptosis of OPM2 cells compared to dMCL1-2 and C3 [1] | EC50 [2] [µM] | IC50 [3] [µM] | activity in viability assay in cardiomyocytes [3] | mitochondrial potential (population of cells with normal polarized mitochondria) [4] | MCL-1 protein degradation and induction of apoptosis compared with control compounds ([1]; OPM-2 cells vs dMCL1-2, MV-4-11 cells vs C3 (FIG. 3A, 3B))
Cc1nn(C)c(C)c1-c1c(F)ccc2c(CCCOc3cccc4cc(F)ccc34)c(C(=O)O)n(CCN3CCN(C(=O)COc4cccc5c4C(=O)N(C4CCC(=O)NC4=O)C5=O)CC3)c12 (stereo not drawn) [Compound 215, 1-{2-[4-(2-{[2-(2,6-dioxopiperidin-3-yl)-1,3-dioxo-2,3-dihydro-1H-isoindol-4-yl]oxy}acetyl)piperazin-1-yl]ethyl}-6-fluoro-3-{3-[(6-fluoronaphthalen-1-yl)oxy]propyl}-7-(1,3,5-trimethyl-1H-pyrazol-4-yl)-1H-indole-2-carboxylic acid] | improved potency | < 0.1 |  |  |  | 
Cc1nn2c(c1-c1c(Cl)ccc3c(CCCOc4cccc5cc(F)ccc45)c(C(=O)O)n(CCN4CCN(C(=O)COc5cccc6c5CN(C5CCC(=O)NC5=O)C6=O)CC4)c13)COCC2 (stereo not drawn) [Compound 346, 6-Chloro-1-(2-(4-(2-((2-(2,6-dioxopiperidin-3-yl)-1-oxoisoindolin-4-yl)oxy)acetyl)piperazin-1-yl)ethyl)-3-(3-((6-fluoronaphthalen-1-yl)oxy)propyl)-7-(2-methyl-6,7-dihydro-4H-pyrazolo[5,1-c][1,4]oxazin-3-yl)-1H-indole-2-carboxylic acid] | improved potency | < 0.1 | 10 | much lower activity |  | 
Cc1nn(C)c(C)c1-c1c(Cl)ccc2c(CCCOc3cccc4cc(F)ccc34)c(C(=O)O)n(CCN3CCN(C(=O)Cn4c(C)nc5c(C(=O)NC6CCC(=O)NC6=O)cccc54)CC3)c12 (stereo not drawn) [Compound 268, 6-chloro-1-{2-[4-(2-{4-[(2,6-dioxopiperidin-3-yl)carbamoyl]-2-methyl-1H-1,3-benzodiazol-1-yl}acetyl)piperazin-1-yl]ethyl}-3-{3-[(6-fluoronaphthalen-1-yl)oxy]propyl}-7-(1,3,5-trimethyl-1H-pyrazol-4-yl)-1H-indole-2-carboxylic acid] | improved potency |  | > 39.8 | much lower activity | concentration dependent depolarization of mitochondria | 
Cc1nn(C)c(C)c1-c1c(Cl)ccc2c(CCCOc3cccc4cc(F)ccc34)c(C(=O)O)n(CCN3CCN(C(=O)COc4cccc5c4CN(C4CCC(=O)NC4=O)C5=O)CC3)c12 (stereo not drawn) [Compound 220, 6-chloro-1-{2-[4-(2-{[2-(2,6-dioxopiperidin-3-yl)-1-oxo-2,3-dihydro-1H-isoindol-4-yl]oxy}acetyl)piperazin-1-yl]ethyl}-3-{3-[(6-fluoronaphthalen-1-yl)oxy]propyl}-7-(1,3,5-trimethyl-1H-pyrazol-4-yl)-1H-indole-2-carboxylic acid] | improved potency | < 0.1 | 10 | much lower activity | concentration dependent depolarization of mitochondria | 
Cc1nn(C)c(C)c1-c1c(Cl)ccc2c(CCCOc3cccc4ccccc34)c(C(=O)O)n(CCN3CCN(C(=O)COc4cccc5c4C(=O)N(C4CCC(=O)NC4=O)C5=O)CC3)c12 (stereo not drawn) [Compound 204, 6-chloro-1-(2-(4-(2-((2-(2,6-dioxopiperidin-3-yl)-1,3-dioxoisoindolin-4-yl)oxy)acetyl)piperazin-1-yl)ethyl)-3-(3-(naphthalen-1-yloxy)propyl)-7-(1,3,5-trimethyl-1H-pyrazol-4-yl)-1H-indole-2-carboxylic acid] | improved potency | < 0.1 |  |  |  | more potent
